Here are results for 14 compounds from ChEMBL document CHEMBL1921798, “Discovery of a potent, selective, and orally available class I phosphatidylinositol 3-kinase (PI3K)/mammalian target of rapamycin (mTOR) kinase inhibitor (GDC-0980) for the treatment of cancer” (J Med Chem, 2011).

Converted amounts (≈) assume the structure as drawn.

Data set [1] in a line: in vivo. Particulars: beagle, dog, plasma, iv, 1 mg/kg.
Data set [2] in a line: in vivo. The conditions noted are these: Sprague-Dawley, rat, plasma, iv, 1 mg/kg.
Data set [3] addresses Serine/threonine-protein kinase mTOR (Homo sapiens, UniProt P42345).
Description: Inhibition of human recombinant mTOR expressed in insect cells assessed as phosphorylation of recombinant (GFP)-4-EBP1 measured after 30 mins by fluorescence polarization assay
For data set [4], the target named is Phosphatidylinositol 4,5-bisphosphate 3-kinase catalytic subunit gamma isoform (Homo sapiens, UniProt P48736).
Phosphatidylinositol 4,5-bisphosphate 3-kinase catalytic subunit gamma isoform, sequence (P48736 whole entry, canonical isoform): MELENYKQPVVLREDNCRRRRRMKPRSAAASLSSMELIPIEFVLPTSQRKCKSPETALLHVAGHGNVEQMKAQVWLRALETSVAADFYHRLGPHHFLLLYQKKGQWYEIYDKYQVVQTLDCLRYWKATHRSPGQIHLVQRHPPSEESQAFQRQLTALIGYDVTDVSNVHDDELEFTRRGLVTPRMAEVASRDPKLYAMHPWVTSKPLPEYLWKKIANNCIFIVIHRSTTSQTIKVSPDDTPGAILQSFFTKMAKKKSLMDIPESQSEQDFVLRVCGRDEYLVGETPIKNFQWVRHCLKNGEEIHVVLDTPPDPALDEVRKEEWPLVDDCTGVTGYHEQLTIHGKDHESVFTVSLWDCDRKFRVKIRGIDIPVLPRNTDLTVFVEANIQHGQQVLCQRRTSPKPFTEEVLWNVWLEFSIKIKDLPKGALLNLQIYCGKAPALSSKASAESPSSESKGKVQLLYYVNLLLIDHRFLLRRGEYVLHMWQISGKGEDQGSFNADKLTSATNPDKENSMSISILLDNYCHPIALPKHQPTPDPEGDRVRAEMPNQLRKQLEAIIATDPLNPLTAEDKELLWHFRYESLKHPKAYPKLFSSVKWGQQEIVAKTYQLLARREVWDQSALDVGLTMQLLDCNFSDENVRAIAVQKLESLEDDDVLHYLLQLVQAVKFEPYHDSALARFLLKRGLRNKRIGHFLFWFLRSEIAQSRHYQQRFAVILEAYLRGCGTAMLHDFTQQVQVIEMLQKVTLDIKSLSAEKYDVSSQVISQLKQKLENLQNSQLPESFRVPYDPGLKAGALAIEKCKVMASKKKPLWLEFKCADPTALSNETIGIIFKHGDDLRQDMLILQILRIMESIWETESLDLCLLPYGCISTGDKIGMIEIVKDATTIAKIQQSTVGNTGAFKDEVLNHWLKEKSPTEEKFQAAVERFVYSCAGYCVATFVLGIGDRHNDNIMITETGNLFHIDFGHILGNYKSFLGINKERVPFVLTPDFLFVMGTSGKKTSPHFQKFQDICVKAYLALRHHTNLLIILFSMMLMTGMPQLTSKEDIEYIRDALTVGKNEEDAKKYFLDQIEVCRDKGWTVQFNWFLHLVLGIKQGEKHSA
Data set [5] addresses Phosphatidylinositol 4,5-bisphosphate 3-kinase catalytic subunit beta isoform (Homo sapiens, UniProt P42338).
Description: Inhibition of PI3K subunit p110beta assessed as formation of phosphatidylinositide-3-phosphate product formation after 30 mins by fluorescence polarization assay
The nature of data set [6]: physchem. Particulars: buffer, pH 6.5.
Description: Thermodynamic solubility of the compound at pH 6.5
For data set [7], the target named is T1, Phosphatidylinositol 4,5-bisphosphate 3-kinase catalytic subunit delta isoform (Homo sapiens, UniProt O00329).
T1 sequence (O00329 whole entry): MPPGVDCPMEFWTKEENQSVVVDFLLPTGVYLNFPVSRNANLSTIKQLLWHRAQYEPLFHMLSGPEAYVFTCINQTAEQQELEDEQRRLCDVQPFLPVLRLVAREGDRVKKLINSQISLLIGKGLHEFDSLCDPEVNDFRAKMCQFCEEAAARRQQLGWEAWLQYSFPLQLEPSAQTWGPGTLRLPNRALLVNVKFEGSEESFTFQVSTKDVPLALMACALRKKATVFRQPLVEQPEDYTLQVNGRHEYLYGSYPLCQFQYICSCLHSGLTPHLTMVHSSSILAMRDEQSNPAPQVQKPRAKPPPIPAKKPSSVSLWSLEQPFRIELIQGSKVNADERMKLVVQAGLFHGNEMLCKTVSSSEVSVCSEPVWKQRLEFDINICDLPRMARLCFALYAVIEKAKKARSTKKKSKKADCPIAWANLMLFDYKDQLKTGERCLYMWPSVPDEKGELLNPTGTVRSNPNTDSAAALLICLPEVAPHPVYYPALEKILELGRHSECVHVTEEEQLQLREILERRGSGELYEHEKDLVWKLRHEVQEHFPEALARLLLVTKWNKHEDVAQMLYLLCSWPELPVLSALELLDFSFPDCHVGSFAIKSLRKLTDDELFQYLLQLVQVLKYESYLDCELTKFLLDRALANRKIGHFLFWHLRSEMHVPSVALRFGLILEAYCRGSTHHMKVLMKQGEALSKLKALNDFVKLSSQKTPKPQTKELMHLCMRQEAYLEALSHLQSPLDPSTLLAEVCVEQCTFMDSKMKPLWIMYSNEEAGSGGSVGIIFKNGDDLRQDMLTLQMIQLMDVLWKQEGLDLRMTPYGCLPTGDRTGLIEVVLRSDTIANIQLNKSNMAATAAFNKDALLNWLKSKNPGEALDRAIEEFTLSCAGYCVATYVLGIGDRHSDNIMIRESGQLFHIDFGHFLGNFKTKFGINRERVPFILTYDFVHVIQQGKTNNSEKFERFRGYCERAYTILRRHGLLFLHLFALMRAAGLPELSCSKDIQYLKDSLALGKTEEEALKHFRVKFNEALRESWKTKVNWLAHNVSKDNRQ

Data set [8] is described as follows: in vivo. The conditions noted are these: Sprague-Dawley, rat, po, 1 mg/kg.
Another data set in a line: in vitro. Particulars: human, plasma.
Data set [9] can be described thus: physchem. Particulars: octanol/water.
Description: Lipophilicity, log D of the compound
Data set [10] addresses Phosphatidylinositol 4,5-bisphosphate 3-kinase catalytic subunit alpha isoform (Homo sapiens, UniProt P42336).
Description: Inhibition of PI3K subunit p110alpha assessed as formation of phosphatidylinositide-3-phosphate product formation after 30 mins by fluorescence polarization assay

Phosphatidylinositol 4,5-bisphosphate 3-kinase catalytic subunit beta isoform, sequence (P42338 whole entry, canonical isoform): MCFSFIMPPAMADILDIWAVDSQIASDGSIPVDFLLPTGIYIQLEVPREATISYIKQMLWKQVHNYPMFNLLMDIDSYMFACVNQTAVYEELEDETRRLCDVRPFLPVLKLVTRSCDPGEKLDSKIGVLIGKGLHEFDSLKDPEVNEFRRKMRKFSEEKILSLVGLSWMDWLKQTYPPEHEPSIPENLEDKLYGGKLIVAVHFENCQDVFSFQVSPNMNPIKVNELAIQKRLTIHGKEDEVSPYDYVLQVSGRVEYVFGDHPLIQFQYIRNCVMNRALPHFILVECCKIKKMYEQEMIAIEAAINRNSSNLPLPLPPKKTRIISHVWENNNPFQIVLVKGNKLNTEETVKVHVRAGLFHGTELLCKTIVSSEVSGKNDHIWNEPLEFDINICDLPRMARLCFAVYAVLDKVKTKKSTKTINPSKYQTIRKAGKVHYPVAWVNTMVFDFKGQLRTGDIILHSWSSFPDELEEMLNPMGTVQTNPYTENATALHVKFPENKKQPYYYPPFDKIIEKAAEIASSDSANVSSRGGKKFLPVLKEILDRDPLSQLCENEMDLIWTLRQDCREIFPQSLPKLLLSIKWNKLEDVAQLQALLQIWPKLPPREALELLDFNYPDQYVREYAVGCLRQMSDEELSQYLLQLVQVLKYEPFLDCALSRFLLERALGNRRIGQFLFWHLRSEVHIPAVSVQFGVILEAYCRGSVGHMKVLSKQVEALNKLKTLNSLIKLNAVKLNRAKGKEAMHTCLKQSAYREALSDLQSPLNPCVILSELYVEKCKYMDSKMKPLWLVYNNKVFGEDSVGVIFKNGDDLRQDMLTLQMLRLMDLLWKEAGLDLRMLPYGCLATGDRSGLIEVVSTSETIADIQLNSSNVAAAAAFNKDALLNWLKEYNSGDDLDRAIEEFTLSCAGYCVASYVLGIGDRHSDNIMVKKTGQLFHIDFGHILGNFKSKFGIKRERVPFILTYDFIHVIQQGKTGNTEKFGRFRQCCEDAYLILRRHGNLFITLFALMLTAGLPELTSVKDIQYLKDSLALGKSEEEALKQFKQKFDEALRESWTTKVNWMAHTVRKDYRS
Phosphatidylinositol 4,5-bisphosphate 3-kinase catalytic subunit alpha isoform, sequence (P42336 whole entry, canonical isoform): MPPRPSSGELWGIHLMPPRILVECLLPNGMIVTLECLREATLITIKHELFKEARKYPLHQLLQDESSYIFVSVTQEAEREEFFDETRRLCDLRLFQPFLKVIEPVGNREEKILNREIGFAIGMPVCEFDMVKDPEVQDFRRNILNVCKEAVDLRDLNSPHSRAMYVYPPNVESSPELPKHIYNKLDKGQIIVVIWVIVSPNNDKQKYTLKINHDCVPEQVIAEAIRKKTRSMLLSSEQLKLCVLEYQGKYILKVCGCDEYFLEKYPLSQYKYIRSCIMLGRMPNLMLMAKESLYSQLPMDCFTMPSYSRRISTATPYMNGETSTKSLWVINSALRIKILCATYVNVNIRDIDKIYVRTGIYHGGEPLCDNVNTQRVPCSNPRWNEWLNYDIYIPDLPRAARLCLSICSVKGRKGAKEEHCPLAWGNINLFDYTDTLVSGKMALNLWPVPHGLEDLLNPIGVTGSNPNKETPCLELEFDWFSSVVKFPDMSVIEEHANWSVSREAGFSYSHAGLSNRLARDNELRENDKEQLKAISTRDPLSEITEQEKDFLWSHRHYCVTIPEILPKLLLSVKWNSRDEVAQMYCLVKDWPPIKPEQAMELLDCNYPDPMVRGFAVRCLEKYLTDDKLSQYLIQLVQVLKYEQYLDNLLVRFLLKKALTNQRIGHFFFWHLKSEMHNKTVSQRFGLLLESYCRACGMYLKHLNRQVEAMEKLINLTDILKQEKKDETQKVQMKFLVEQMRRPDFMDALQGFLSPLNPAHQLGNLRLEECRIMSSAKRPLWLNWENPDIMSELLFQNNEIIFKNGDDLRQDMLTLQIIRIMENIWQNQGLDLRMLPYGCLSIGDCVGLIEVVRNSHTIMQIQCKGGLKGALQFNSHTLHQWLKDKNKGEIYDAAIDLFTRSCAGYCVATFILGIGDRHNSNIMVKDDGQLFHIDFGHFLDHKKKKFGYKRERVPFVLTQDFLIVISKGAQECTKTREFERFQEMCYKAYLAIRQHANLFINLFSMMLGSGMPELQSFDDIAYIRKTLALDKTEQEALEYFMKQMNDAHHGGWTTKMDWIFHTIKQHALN
Description for in vitro: Plasma protein binding in human

In turn, `Cc1c(CN2CCN(S(C)(=O)=O)CC2)sc2c(N3CCOCC3)nc(-c3cnc(N)nc3)nc12.Cl` returned a clearance in “in vivo [1]” of 5 mL/min/kg.
`CS(=O)(=O)N1CCN(Cc2cc3nc(-c4cnc(N)nc4)nc(N4CCOCC4)c3s2)CC1.Cl` yielded a clearance in “in vivo [1]” of 22 mL/min/kg.
In the case of `CS(=O)(=O)N1CCN(Cc2cc3nc(-c4cnc(N)nc4)nc(N4CCOCC4)c3s2)CC1.O=C(O)C(F)(F)F`, the clearance in “in vivo [2]” amounted to 24 mL/min/kg.
Take `Cc1c(CN2CCN(C(=O)C(C)(C)N)CC2)sc2c(N3CCOCC3)nc(-c3cnc(N)nc3)nc12`: the Ki in [3] stood at 14 nM. Moreover, the 50% inhibitory concentration (IC50) is 20 nM in data set [4], 44 nM in data set [5] and 1.5 nM in [7]. Moreover, in “physchem [6]”, the solubility (thermodynamic) worked out at 1000 µg/mL (≈ 1950 µM).
On to `Cc1c(CN2CCN(C(=O)C(C)(C)O)CC2)sc2c(N3CCOCC3)nc(-c3cnc(N)nc3)nc12.O=C(O)C(F)(F)F`, for which the bioavailability in the data set “in vivo [8]” came out at 71%. In addition, in the data set “in vivo [2]”, the clearance was 24 mL/min/kg.
In the case of `Cc1c(CN2CCN(C(=O)[C@H](C)N)CC2)sc2c(N3CCOCC3)nc(-c3cnc(N)nc3)nc12`, the affinity in data set [3], expressed as Ki, was 6.3 nM. The values for the IC50 in [4], in data set [5] and in [7] were 37 nM, 29 nM and 2.4 nM, respectively.
Take `CS(=O)(=O)N1CCN(Cc2cc3nc(-c4cnc(N)nc4)nc(N4CCOCC4)c3s2)CC1`: in “in vitro”, the fraction unbound is 0.49. In the data set “physchem [6]”, this compound yielded a solubility (thermodynamic) of 24 µg/mL (≈ 48.9 µM). The same compound returned a logD in “physchem [9]” of 1.3.
The compound `Cc1c(CN2CCN(S(C)(=O)=O)CC2)sc2c(N3CCOCC3)nc(-c3cnc(N)nc3)nc12` showed a fraction unbound in the data set “in vitro” of 0.23. For the same compound, in the data set “physchem [6]”, the thermodynamic solubility amounted to 9 µg/mL (≈ 17.8 µM).
As for `Cc1c(CN2CCN(C(=O)CO)CC2)sc2c(N3CCOCC3)nc(-c3cnc(N)nc3)nc12`, the affinity in data set [10] corresponds to a Ki of 2.8 nM. Moreover, the IC50 in data set [4] turned out to be 10 nM; in data set [5], 19 nM; in data set [7] it was 5.6 nM.
In “in vivo [8]”, `Cc1c(CN2CCN(C(=O)C(C)(C)N)CC2)sc2c(N3CCOCC3)nc(-c3cnc(N)nc3)nc12.O=C(O)C(F)(F)F` displayed a bioavailability of 6%. Further, the clearance in the data set “in vivo [2]” amounted to 84 mL/min/kg.
On the same counts, the results for `Cc1c(CN2CCN(C(=O)CN)CC2)sc2c(N3CCOCC3)nc(-c3cnc(N)nc3)nc12.O=C(O)C(F)(F)F` are 0% and 140 mL/min/kg.
Regarding `Cc1c(CN2CCN(S(C)(=O)=O)CC2)sc2c(N3CCOCC3)nc(-c3cnc(N)nc3)nc12.O=C(O)C(F)(F)F`, in the data set “in vivo [2]”, the clearance worked out at 13 mL/min/kg.
Compound `Cc1c(CN2CCN(C(=O)C(C)(C)O)CC2)sc2c(N3CCOCC3)nc(-c3cnc(N)nc3)nc12` displayed a Ki in data set [3] of 14 nM. In addition, the IC50 in [4] was determined as 25 nM; in data set [5] it was 45 nM; in data set [7], 5 nM. Further, the solubility (thermodynamic) in the data set “physchem [6]” came to 600 µg/mL (≈ 1170 µM).
Regarding `Cc1c(CN2CCN(C(=O)CN)CC2)sc2c(N3CCOCC3)nc(-c3cnc(N)nc3)nc12`, the Ki in [3] is 12 nM. In addition, the IC50 worked out at 0.7 nM in data set [10], 17 nM in data set [4], 11 nM in data set [5] and 4.3 nM in data set [7]. This compound also showed a solubility (thermodynamic) in the data set “physchem [6]” of 690 µg/mL (≈ 1430 µM).
